{"source": "paper PMC3828397", "about": "“Characterization of PfTrxR inhibitors using antimalarial assays and in silico techniques” (Chemistry Central Journal, 2013)", "key": {"[1]": {"tested_on": "P. falciparum chloroquine sensitive (D6, Sierra Leone) strain", "assay": "In vitro antimalarial assay (SYBR green), D6 strain", "format": "cell-based, Plasmodium falciparum"}, "[2]": {"tested_on": "P. falciparum chloroquine resistant (W2, IndoChina) strain", "assay": "In vitro antimalarial assay (SYBR green), W2 strain", "format": "cell-based, Plasmodium falciparum"}, "[3]": {"tested_on": "3T3 cells", "assay": "Cytotoxicity assay (AlamarBlue)", "format": "cell-based"}, "[4]": {"tested_on": "Human erythrocytes", "assay": "ROS assay in DCFDA loaded erythrocytes", "format": "cell-based"}, "[5]": {"tested_on": "P. falciparum CQ-sensitive (D6) and CQ-resistant (W2) strains", "assay": "In vitro antimalarial assay, statements covering both strains", "format": "cell-based, Plasmodium falciparum", "settings": "for IC50: Plasmodium falciparum, strain not given, read-out: antimalarial activity IC50 (abstract)"}, "[6]": {"tested_on": "PfTrxR", "settings": "read-out: Pf TrxR IC50; cited from earlier work"}, "[7]": {"tested_on": "hTrxR", "settings": "read-out: Exptl. IC50, hTrxR; cited from earlier work"}, "[8]": {"settings": "Plasmodium falciparum, D6 clone, mean ± S.D. of triplicate observations, read-out: Pf (D6) CQ sensitive IC50"}, "[9]": {"settings": "Plasmodium falciparum, W2, W2 clone, mean ± S.D. of triplicate observations, read-out: Pf (W2) CQ resistance IC50"}, "[10]": {"settings": "Mus musculus, NIH3T3, 3T3 cells, AlamarBlue, NC: no cytotoxicity up to concentration much higher than the antiplasmodial concentration, read-out: 3T3 IC50"}, "[11]": {"settings": "test compounds 50 μM, DCFDA fluorescence monitored for 120 min"}, "[12]": {"settings": "against the two strains of P. falciparum"}, "[13]": {"settings": "Plasmodium falciparum, D6, read-out: Pf (D6) CQ sensitive IC50"}, "[14]": {"settings": "Plasmodium falciparum, W2, read-out: Pf (W2) CQ resistance IC50"}}, "note": "Where two headings read alike, the source gives them in different places."}
{"compound": "O=C1C=CC(=O)c2ccccc21", "note": "[1,4-NQ, 1,4-napthoquinone]", "values": [{"measurement": "IC50", "setting": "[1]; [8]", "result": "8.9 ± 2.3", "unit": "µM"}, {"measurement": "IC50", "setting": "[2]; [9]", "result": "< 20", "unit": "µM"}, {"measurement": "IC50", "setting": "[2]; W2 clone, mean ± S.D. of triplicate observations, read-out: Pf (W2) CQ resistance IC50", "result": "16.7 ± 3.7", "unit": "µM"}, {"measurement": "IC50", "setting": "[3]; [10]", "result": "38.5 ± 0.76", "unit": "µM"}, {"measurement": "intraerythrocytic formation of ROS (oxidative stress)", "setting": "[4]; [11]", "result": "significant increase"}, {"measurement": "IC50", "setting": "[5]", "result": "< 20", "unit": "µM"}, {"measurement": "antimalarial activity in words", "setting": "[5]; [12]", "result": "most active"}, {"measurement": "IC50", "setting": "[6]", "result": 0.75, "unit": "µM"}]}
{"compound": "CCN(CC)CCCC(C)Nc1ccnc2cc(Cl)ccc12", "note": "(centres unmarked) [CQ, chloroquine]", "values": [{"measurement": "IC50", "setting": "[1]; [13]", "result": "0.055 ± 0.006", "unit": "µM"}, {"measurement": "IC50", "setting": "[2]; [14]", "result": "0.44 ± 0.045", "unit": "µM"}]}
{"compound": "CC1=CC(=O)c2ccccc2C1=O", "note": "[MD, menadione]", "values": [{"measurement": "IC50", "setting": "[1]; [8]", "result": "18.5 ± 1.9", "unit": "µM"}, {"measurement": "IC50", "setting": "[2]; [9]", "result": "28.3 ± 5.6", "unit": "µM"}, {"measurement": "IC50", "setting": "[3]; [10]", "result": "70.5 ± 3.69", "unit": "µM"}, {"measurement": "intraerythrocytic formation of ROS (oxidative stress)", "setting": "[4]; [11]", "result": "significant increase"}, {"measurement": "IC50", "setting": "[5]", "result": "< 20", "unit": "µM"}, {"measurement": "antimalarial activity in words", "setting": "[5]; [12]", "result": "moderately active"}, {"measurement": "IC50", "setting": "[6]", "result": 1.6, "unit": "µM"}]}
{"compound": "4-nitrobenzothiadiazole [4-NBT]", "values": [{"measurement": "IC50", "setting": "[1]; read-out: Pf (D6) CQ sensitive IC50", "result": "8.3 ± 2.1", "unit": "µM"}, {"measurement": "IC50", "setting": "[3]; read-out: 3T3 IC50", "result": "80 ± 1.15", "unit": "µM"}, {"measurement": "intraerythrocytic formation of ROS (oxidative stress)", "setting": "[4]", "result": "significant increase"}, {"measurement": "antimalarial activity in words", "setting": "[5]", "result": "most active"}, {"measurement": "IC50", "setting": "[6]", "result": 2, "unit": "µM"}, {"measurement": "IC50", "setting": "[7]", "result": 50, "unit": "µM"}]}
{"compound": "CN(C)CCC(=O)c1ccccc1", "note": "[3-DAP, 3-dimethylaminopropiophenone]", "values": [{"measurement": "IC50", "setting": "[1]; [13]", "result": "> 100", "unit": "µM"}, {"measurement": "IC50", "setting": "[2]; [14]", "result": "> 100", "unit": "µM"}, {"measurement": "IC50", "setting": "[3]; Mus musculus, NIH3T3, read-out: 3T3 IC50", "result": "> 100", "unit": "µM"}, {"measurement": "intraerythrocytic formation of ROS (oxidative stress)", "setting": "[4]", "result": "did not cause the production of ROS"}, {"measurement": "antimalarial activity in words", "setting": "[5]; [12]", "result": "inactive"}, {"measurement": "IC50", "setting": "[6]", "result": 15.4, "unit": "µM"}]}
